{"source": "patent US20060069132A1", "about": "“Azolecarboxamide herbicides” (priority 2004, published 2006)", "key": {"barnyardgrass": {"test_system": "barnyardgrass", "test": "Test A pre-/postemergence herbicide test", "format": "in vivo, Echinochloa crus-galli", "outline": "(§1)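 Seeds sown in sandy loam received a preemergence directed soil spray of compound in non-phytotoxic solvent with surfactant; postemergence plants (2–10 cm, one- to two-leaf stage) were sprayed to runoff at the same time. After ~10 days in greenhouse, injury was rated visually versus untreated controls (0 = no effect, 100 = complete control).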"}, "morningglory": {"test_system": "morningglory", "test": "Test A pre-/postemergence herbicide test", "format": "in vivo, Ipomoea spp.", "outline": "as §1"}, "velvetleaf [1]": {"test_system": "velvetleaf", "test": "Test A pre-/postemergence herbicide test", "format": "in vivo, Abutilon theophrasti", "outline": "as §1"}, "bermudagrass": {"test_system": "bermudagrass", "test": "Test C pre-/postemergence herbicide test", "format": "in vivo, Cynodon dactylon", "outline": "(§2)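 Seeds were planted and sprayed preemergence with test chemicals in a non-phytotoxic solvent mixture containing surfactant; postemergence treatments went onto plants 2 to 18 cm tall (1- to 4-leaf stage). After 12 to 14 days in a greenhouse, injury was rated visually against untreated controls on a 0–100 scale.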"}, "cocklebur": {"test_system": "cocklebur", "test": "Test C pre-/postemergence herbicide test", "format": "in vivo, Xanthium strumarium", "outline": "as §2"}, "corn": {"test_system": "corn", "test": "Test C pre-/postemergence herbicide test", "format": "in vivo, Zea mays", "outline": "as §2"}, "goosegrass": {"test_system": "goosegrass", "test": "Test C pre-/postemergence herbicide test", "format": "in vivo, Eleusine indica", "outline": "as §2"}, "johnsongrass": {"test_system": "johnsongrass", "test": "Test C pre-/postemergence herbicide test", "format": "in vivo, Sorghum halepense", "outline": "as §2"}, "soybean": {"test_system": "soybean", "test": "Test C pre-/postemergence herbicide test", "format": "in vivo, Glycine max", "outline": "as §2"}, "velvetleaf [2]": {"test_system": "velvetleaf", "test": "Test C pre-/postemergence herbicide test", "format": "in vivo, Abutilon theophrasti", "outline": "as §2"}, "rice": {"test_system": "rice", "test": "Test C flooded paddy test", "format": "in vivo, Oryza sativa", "outline": "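Plants were grown to the 1- to 4-leaf stage (2–18 cm) and then treated postemergence, or grown to the 2-leaf stage for the flooded paddy test. They were held in a greenhouse for 12 to 14 days and then scored by eye against controls, where 0 is no effect and 100 is complete control.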"}, "[3]": {"test_system": "smallflower umbrella sedge", "test": "Test C flooded paddy test", "format": "in vivo, Cyperus difformis"}, "ducksalad": {"test_system": "ducksalad", "test": "Test C flooded paddy test", "format": "in vivo, Heteranthera limosa"}, "[4]": {"conditions": "Postemergence, 500 g ai/ha, 0 to 100 scale, 0 no effect, 100 complete control"}, "[5]": {"conditions": "Postemergence, 2000 g ai/ha, 0 to 100 scale, 0 no effect, 100 complete control"}, "[6]": {"conditions": "Preemergence, 2000 g ai/ha, visual rating, 0 to 100 scale (0 no effect, 100 complete control)"}, "[7]": {"conditions": "preemergence, 500 g ai/ha, visual injury, 0 to 100 scale (0 no effect, 100 complete control)"}, "[8]": {"conditions": "Postemergence, 500 g ai/ha, scale 0 to 100"}, "[9]": {"conditions": "Postemergence, 250 g ai/ha, scale 0 to 100, 0 no effect, 100 complete control"}, "[10]": {"conditions": "postemergence, 125 g ai/ha, scale 0 to 100"}, "[11]": {"conditions": "postemergence, 62 g ai/ha, scale 0 to 100"}, "[12]": {"conditions": "125 g ai/ha, scale 0 to 100 (0 no effect, 100 complete control)"}, "[13]": {"conditions": "250 g ai/ha, scale of 0 to 100, 0 is no effect, 100 is complete control"}, "[14]": {"conditions": "500 g ai/ha, visual rating after 12 to 14 days, scale 0 to 100 (0 no effect, 100 complete control)"}}, "data": [{"smiles": "CCn1nc(C(C)(C)C)cc1C(=O)Nc1cccc(OC(F)(F)F)c1", "note": "[Compound 272]", "values": [{"measurement": "Barnyardgrass plant response rating", "setting": "barnyardgrass; [4]", "value": 55}, {"measurement": "Plant response rating, Barnyardgrass", "setting": "barnyardgrass; [5]", "value": 90}, {"measurement": "Barnyardgrass plant response rating", "setting": "barnyardgrass; [6]", "value": 100}, {"measurement": "Barnyardgrass plant response rating", "setting": "barnyardgrass; [7]", "value": 70}, {"measurement": "Morningglory plant response rating", "setting": "morningglory; [4]", "value": 100}, {"measurement": "Plant response rating, Morningglory", "setting": "morningglory; [5]", "value": 100}, {"measurement": "Morningglory plant response rating", "setting": "morningglory; [6]", "value": 55}, {"measurement": "Morningglory plant response rating", "setting": "morningglory; [7]", "value": 20}, {"measurement": "Velvetleaf plant response rating", "setting": "velvetleaf [1]; [4]", "value": 100}, {"measurement": "Plant response rating, Velvetleaf", "setting": "velvetleaf [1]; [5]", "value": 100}, {"measurement": "Velvetleaf plant response rating", "setting": "velvetleaf [1]; [6]", "value": 60}, {"measurement": "Velvetleaf plant response rating", "setting": "velvetleaf [1]; [7]", "value": 15}, {"measurement": "Bermudagrass plant response rating", "setting": "bermudagrass; [8]", "value": 100}, {"measurement": "Plant response rating, Bermudagrass", "setting": "bermudagrass; [9]", "value": 100}, {"measurement": "Plant response rating, Bermudagrass", "setting": "bermudagrass; [10]", "value": 80}, {"measurement": "Plant response rating, Bermudagrass", "setting": "bermudagrass; [11]", "value": 50}, {"measurement": "Cocklebur plant response rating", "setting": "cocklebur; [8]", "value": 95}, {"measurement": "Plant response rating, Cocklebur", "setting": "cocklebur; [9]", "value": 60}, {"measurement": "Plant response rating, Cocklebur", "setting": "cocklebur; [10]", "value": 60}, {"measurement": "Plant response rating, Cocklebur", "setting": "cocklebur; [11]", "value": 15}, {"measurement": "Corn plant response rating", "setting": "corn; [8]", "value": 20}, {"measurement": "Plant response rating, Corn", "setting": "corn; [9]", "value": 15}, {"measurement": "Plant response rating, Corn", "setting": "corn; [10]", "value": 15}, {"measurement": "Plant response rating, Corn", "setting": "corn; [11]", "value": 10}, {"measurement": "Goosegrass plant response rating", "setting": "goosegrass; [8]", "value": 80}, {"measurement": "Plant response rating, Goosegrass", "setting": "goosegrass; [9]", "value": 75}, {"measurement": "Plant response rating, Goosegrass", "setting": "goosegrass; [10]", "value": 65}, {"measurement": "Plant response rating, Goosegrass", "setting": "goosegrass; [11]", "value": 20}, {"measurement": "Johnsongrass plant response rating", "setting": "johnsongrass; [8]", "value": 55}, {"measurement": "Plant response rating, Johnsongrass", "setting": "johnsongrass; [9]", "value": 45}, {"measurement": "Plant response rating, Johnsongrass", "setting": "johnsongrass; [10]", "value": 40}, {"measurement": "Plant response rating, Johnsongrass", "setting": "johnsongrass; [11]", "value": 10}, {"measurement": "Soybean plant response rating", "setting": "soybean; [8]", "value": 95}, {"measurement": "Plant response rating, Soybean", "setting": "soybean; [9]", "value": 85}, {"measurement": "Plant response rating, Soybean", "setting": "soybean; [10]", "value": 80}, {"measurement": "Plant response rating, Soybean", "setting": "soybean; [11]", "value": 60}, {"measurement": "Velvetleaf plant response rating", "setting": "velvetleaf [2]; [8]", "value": 100}, {"measurement": "Plant response rating, Velvetleaf", "setting": "velvetleaf [2]; [9]", "value": 100}, {"measurement": "Plant response rating, Velvetleaf", "setting": "velvetleaf [2]; [10]", "value": 95}, {"measurement": "Plant response rating, Velvetleaf", "setting": "velvetleaf [2]; [11]", "value": 85}, {"measurement": "Rice plant response rating", "setting": "rice; 62 g ai/ha, scale 0 to 100", "value": 0}, {"measurement": "Rice plant response rating", "setting": "rice; [12]", "value": 10}, {"measurement": "Rice plant response rating", "setting": "rice; [13]", "value": 15}, {"measurement": "Plant response rating, Rice", "setting": "rice; [14]", "value": 20}, {"measurement": "Sedge, Umbrella plant response rating", "setting": "[3]; 62 g ai/ha, scale 0 to 100", "value": 30}, {"measurement": "Sedge, Umbrella plant response rating", "setting": "[3]; [12]", "value": 65}, {"measurement": "Sedge, Umbrella plant response rating", "setting": "[3]; [13]", "value": 75}, {"measurement": "Plant response rating, Sedge, Umbrella", "setting": "[3]; [14]", "value": 75}, {"measurement": "Ducksalad plant response rating", "setting": "ducksalad; 62 g ai/ha, scale 0 to 100", "value": 10}, {"measurement": "Ducksalad plant response rating", "setting": "ducksalad; [12]", "value": 20}, {"measurement": "Ducksalad plant response rating", "setting": "ducksalad; [13]", "value": 40}, {"measurement": "Plant response rating, Ducksalad", "setting": "ducksalad; [14]", "value": 85}]}]}
